Test results published in ChEMBL document CHEMBL5608197, “Optimization of pyrazolopyridine 4-carboxamides with potent antimalarial activity for which resistance is associated with the P. falciparum transporter ABCI3” (Eur J Med Chem, 2024).
≈ marks a conversion by molar mass, not a printed value. Calls of active or inactive are those of the source. No cut-off for these calls is given here.

Assays:
Plasmodium falciparum [1] = experiment: Antiplasmodial activity against multidrug-resistant Plasmodium falciparum Dd2 harboring PI4K-S743F mutant infected in erythrocytes assessed as inhibition of parasite growth incubated for 72 hrs by [3H]hypoxanthine incorporation based microbeta counting analysis; assay type: functional, organism-based; details: Dd2, Erythrocyte
Plasmodium falciparum [2] = experiment: Antiplasmodial activity against multidrug-resistant Plasmodium falciparum NF54 infected in erythrocytes assessed as inhibition of parasite growth incubated for 72 hrs by [3H]hypoxanthine incorporation based microbeta counting analysis; assay type: functional, organism-based; details: NF54, Erythrocyte
Plasmodium falciparum [3] = experiment: Antiplasmodial activity against multidrug-resistant Plasmodium falciparum Dd2 harboring CARL-I1139K mutant infected in erythrocytes assessed as inhibition of parasite growth incubated for 72 hrs by [3H]hypoxanthine incorporation based microbeta counting analysis; assay type: functional, organism-based; details: Dd2, Erythrocyte
[4] = Ratio of EC50 for antiplasmodial activity against ring stage of Plasmodium falciparum 3D7 expressing ABCI3-HAreg in absence of ABCI3 inhibitor, GlcN to EC50 for antiplasmodial activity against ring stage of Plasmodium falciparum 3D7 expressing ABCI3-HAreg in presence of ABCI3 inhibitor, GlcN; assay type: functional
[5] = Aqueous solubility of the compound in PBS buffer at pH 7.4 at 200 uM incubated for 2 hrs under shaking condition by miniaturized shake flask method; assay type: physicochemical
Plasmodium falciparum [6] = experiment: Antimalarial activity against asexual stage of Plasmodium falciparum 3D7 infected in erythrocytes assessed as lag phase of parasite growth at 10XEC50 incubated for 24 hrs followed by drug removal and incubation for 48 hrs with CFDA-SE labelled fresh erythrocytes by Hoechst 33342 staining based two-color flow cytometry; assay type: functional, organism-based; details: Erythrocyte
[7] = Cytotoxicity against human HepG2 cells assessed as inhibition of cell growth incubated for 48 hrs by CellTiter-Glo luminescence assay; assay type: toxicity, cell-based
Plasmodium falciparum [8] = experiment: Antiplasmodial activity against multidrug-resistant Plasmodium falciparum 7G8 infected in erythrocytes assessed as inhibition of parasite growth incubated for 72 hrs by [3H]hypoxanthine incorporation based microbeta counting analysis; assay type: functional, organism-based; details: 7G8, Erythrocyte
Plasmodium falciparum [9] = experiment: Antiplasmodial activity against multidrig-resistant Plasmodium falciparum Dd2 harboring eEF2Y-I86N mutant infected in erythrocytes assessed as inhibition of parasite growth incubated for 72 hrs by [3H]hypoxanthine incorporation based microbeta counting analysis; assay type: functional, organism-based; details: Dd2, Erythrocyte
Plasmodium falciparum [10] = experiment: Antiplasmodial activity against Plasmodium falciparum Dd2 infected in erythrocytes assessed as inhibition of parasite growth incubated for 72 hrs by [3H]hypoxanthine incorporation based microbeta counting analysis; assay type: functional, organism-based; details: Dd2, Erythrocyte
[11] = Intrinsic clearance in rat hepatocytes at 1 uM measured per million cells for 90 mins by LC-MS/MS analysis; assay type: ADME, cell-based, Hepatocyte; details: read-out: CLH
[12] = Lipophilicity, elogD of the compound in 1-Octanol/PBS at pH 7.4 at 7.5 uM incubated for 2 hrs by miniaturized shake flask method; assay type: physicochemical
Plasmodium falciparum [13] = experiment: Antimalarial activity against asexual stage of Plasmodium falciparum 3D7 infected in erythrocytes assessed as parasite killing at 10XEC50 incubated for 48 hrs with compound renewal for every 24 hrs followed by drug removal and incubation for 48 hrs with CFDA-SE labelled fresh erythrocytes by Hoechst 33342 staining based two-color flow cytometry; assay type: functional, organism-based; details: Erythrocyte
Plasmodium falciparum [14] = experiment: Antiplasmodial activity against multidrug-resistant Plasmodium falciparum Cam3.1 infected in erythrocytes assessed as inhibition of parasite growth incubated for 72 hrs by [3H]hypoxanthine incorporation based microbeta counting analysis; assay type: functional, organism-based; details: Cam3.1, Erythrocyte
[15] = Intrinsic clearance in human liver microsomes at 1 uM measured for 60 mins by LC-MS/MS analysis; assay type: ADME, Microsome; details: read-out: CLH
Plasmodium falciparum [16] = experiment: Antiplasmodial activity against multidrug-resistant Plasmodium falciparum Dd2 harboring DHODH-C276F mutant infected in erythrocytes assessed as inhibition of parasite growth incubated for 72 hrs by [3H]hypoxanthine incorporation based microbeta counting analysis; assay type: functional, organism-based; details: Dd2, Erythrocyte
Plasmodium falciparum [17] = experiment: Antiplasmodial activity against ring stage of Plasmodium falciparum 3D7 expressing ABCI3-HAreg assessed as inhibition of parasite proliferation incubated for 72 hrs in absence of ABCI3 inhibitor, GlcN by SYBR dye based flow cytometry; assay type: functional, organism-based; details: 3D7, 72 h
Plasmodium falciparum [18] = experiment: Antiplasmodial activity against multidrug-resistant Plasmodium falciparum Dd2 harboring cyt b-I22L mutant infected in erythrocytes assessed as inhibition of parasite growth incubated for 72 hrs by [3H]hypoxanthine incorporation based microbeta counting analysis; assay type: functional, organism-based; details: Dd2, Erythrocyte
Plasmodium falciparum [19] = experiment: Antiplasmodial activity against asexual blood stage of Plasmodium falciparum 3D7 assessed as inhibition of parasite growth incubated for 72 hrs by LDH assay; assay type: functional, organism-based; details: 3D7, 72 h
Plasmodium falciparum [20] = experiment: Antiplasmodial activity against multidrug-resistant Plasmodium falciparum TM90-C2B infected in erythrocytes assessed as inhibition of parasite growth incubated for 72 hrs by [3H]hypoxanthine incorporation based microbeta counting analysis; assay type: functional, organism-based; details: Erythrocyte
Plasmodium falciparum [21] = experiment: Antiplasmodial activity against multidrug-resistant Plasmodium falciparum K1 infected in erythrocytes assessed as inhibition of parasite growth incubated for 72 hrs by [3H]hypoxanthine incorporation based microbeta counting analysis; assay type: functional, organism-based; details: K1, Erythrocyte
Plasmodium falciparum [22] = experiment: Antiplasmodial activity against ring stage of Plasmodium falciparum 3D7 expressing ABCI3-HAreg assessed as inhibition of parasite proliferation incubated for 72 hrs in presence of ABCI3 inhibitor, GlcN by SYBR dye based flow cytometry; assay type: functional, organism-based; details: 3D7, 72 h
Plasmodium berghei [23] = experiment: Antimalarial activity against asexual blood stage of Plasmodium berghei ANKA infected in Balb/c mouse assessed as reduction in parasitemia at 25 mg/kg, po qd administered at 2 hrs post-infection on day 0 and then on days 1,2 and 3 post-infection and measured on day 5 to 7 post-infection by peter's test relative to control; assay type: functional; details: time 6-8 day
Plasmodium berghei [24] = experiment: Antimalarial activity against asexual blood stage of Plasmodium berghei ANKA infected in Balb/c mouse assessed as reduction in parasitemia at 25 mg/kg, po qd administered at 2 hrs post-infection on day 0 and then on days 1,2 and 3 post-infection and measured on day 2 to 4 post-infection; assay type: functional, organism-based; details: time 3-5 day
[25] = Toxicity in Balb/c mouse infected with asexual blood stage of Plasmodium berghei ANKA assessed as adverse effects at 25 mg/kg, po administered at 2 hrs post-infection on day 0 and then on days 1,2 and 3; assay type: organism-based; details: in vivo, 96 h, time 4 day
[26] = Intrinsic clearance in mouse liver microsomes at 1 uM measured for 60 mins by LC-MS/MS analysis; assay type: ADME, Microsome; details: read-out: CLH
[27] = Toxicity in Balb/c mouse infected with asexual blood stage of Plasmodium berghei ANKA assessed as body weight at 25 mg/kg, po qd administered at 2 hrs post-infection on day 0 and then on days 1,2 and 3; assay type: organism-based; details: in vivo, 96 h, time 4 day
Plasmodium berghei [28] = experiment: Antimalarial activity against asexual blood stage of Plasmodium berghei ANKA infected in Balb/c mouse assessed as reduction in parasitemia at 30 mg/kg, po qd administered at 2 hrs post-infection on day 0 and then on days 1,2 and 3 post-infection and measured on day 2 to 4 post-infection; assay type: functional, organism-based; details: time 3-5 day
Plasmodium berghei [29] = experiment: Antimalarial activity against asexual blood stage of Plasmodium berghei ANKA infected in Balb/c mouse assessed as reduction in parasitemia at 30 mg/kg, po qd administered at 2 hrs post-infection on day 0 and then on days 1,2 and 3 post-infection and measured on day 4 to 7 post-infection by peter's test; assay type: functional, organism-based; details: time 5-8 day

Compound `Cc1nn(C(C)(C)C)c2nc(C3CC3)cc(C(=O)N3CCOc4ccccc43)c12` has an EC50 (Plasmodium falciparum [1]) of 101 nM, an EC50 (Plasmodium falciparum [2]) of 46 nM and an EC50 (Plasmodium falciparum [3]) of 79 nM. For the same compound, the “Ratio EC50” value [4] was 3.4, the solubility thermodynamic at 2 h, 200 µM [5] was under 2.5 µM and the Activity (Plasmodium falciparum [6]) was “Active”. For the same compound, the CC50 at 48 h [7] was over 40000 nM, the EC50 (Plasmodium falciparum [8]) was 114 nM and the EC50 (Plasmodium falciparum [9]) was 104 nM. It also gave an EC50 (Plasmodium falciparum [10]) of 88 nM, a hepatocyte CLint at 1 µM [11] of 49 µL/min/1e6 cells and a logD at 2 h, 7.5 µM [12] of 5.4. For the same compound, the Activity (Plasmodium falciparum [13]) was “Active”, the EC50 (Plasmodium falciparum [14]) was 89 nM and the microsomal CLint at 1 µM [15] was 206 µL/min/mg. It also gave an EC50 (Plasmodium falciparum [16]) of 105 nM, an EC50 (Plasmodium falciparum [17]) of 47.6 nM and an EC50 (Plasmodium falciparum [18]) of 91 nM. The EC50 (Plasmodium falciparum [19]) was 130 nM, the EC50 (Plasmodium falciparum [20]) was 119 nM and the EC50 (Plasmodium falciparum [21]) was 134 nM. The EC50 (Plasmodium falciparum [22]) was 13.9 nM.

With `Cc1nn(C(C)C)c2nc(C3CC3)cc(C(=O)N3CCOc4ccncc43)c12` the solubility thermodynamic at 2 h, 200 µM [5] was 199 µM (≈ 75.1 µg/mL), the inhibition in vivo at 25 mg/kg (Plasmodium berghei [23]) was about 50% and the CC50 at 48 h [7] was 17600 nM. For the same compound, the hepatocyte CLint at 1 µM [11] was 30 µL/min/1e6 cells, the logD at 2 h, 7.5 µM [12] was 4.5 and the Activity (Plasmodium berghei [24]) was “inactive”. For the same compound, the Activity [25] was “Non-Toxic”, the microsomal CLint at 1 µM [26] was 323 µL/min/mg and the microsomal CLint at 1 µM [15] was 27 µL/min/mg. For the same compound, the EC50 (Plasmodium falciparum [19]) was 19 nM and the Activity [27] was “Non-Toxic”.

With `C[C@H]1[C@H](OC(=O)CCC(=O)O)O[C@@H]2O[C@@]3(C)CC[C@H]4[C@H](C)CC[C@@H]1[C@@]24OO3` the Activity (Plasmodium berghei [28]) was “Active” and the Activity (Plasmodium berghei [29]) was “inactive”.
